According to patent publication US20050176806A1, “Use of substituted cyanopyrrolidines and combination preparations containing them for treating hyperlipidemia and associated diseases” (priority 2002, published 2005):

Tested on: patients with a diagnosis of Type 2 diabetes mellitus
Test: Evaluation of the Effects of Compound IC on Human Lipid Profiles
Assay type: in vivo
Settings: compound IC 100 mg or 200 mg OD for four weeks, compared to placebo
Source text: Evaluation of the Effects of Compound IC on Human Lipid Profiles Sixty (60) patients comprised of male and non-fertile female patients aged at least 30 years with a diagnosis of Type 2 diabetes mellitus of at least three months duration, who have been treated with diet alone for at least one month prior to study entry were selected. The study was broken down into two periods. Period 1 was the four weeks prior to the beginning of the study, with period 2 being four weeks and being the actual study period when patients were treated with compound IC. Accordingly, study entry was Week −4 and the endpoint was after the fourth week of Period 2. Patients were randomized in a ratio of 1:1:1 as follows: compound IC at 200 mg once a day (OD), compound IC at 100 mg OD and placebo. The patients received compound IC 30 minutes before breakfast. There were 5 test days in the study. Patients attended as outpatients for fasting blood sampling at Week −4 (study entry), Week −2 and Week 2 and as inpatients for 24 hours on Week 0 (=baseline) and Week 4 (=endpoint). On the two inpatient test days, the total caloric intake of breakfast, lunch and dinner was standardized and standard test meals were administered in place of breakfast and dinner. Triglycerides, total cholesterol and lipid fractions (LDL, VLDL and HDL) were measured during 24 hours following the breakfast standard meal. […] On the two inpatient test days, patients fasted for at least 7 hours, i.e., no food or drinks (except water) after midnight on the day before the scheduled visit, and attended the clinic at 07.00 h. On each of the two test days, the total caloric intake during 24 hours was standardized and standard test meals were administered for breakfast (about 08.00 h) and dinner (about 18.00 h). Lunch was taken at approximately 13.00 h. On Day 1, no compound IC was administered but at Week 4, patients took compound IC as normal, 30 minutes before the standard breakfast. Triglycerides, total cholesterol and lipid fractions (LDL, VLDL and HDL) were evaluated. Triglycerides, total cholesterol and HDL were measured and LDL and VLDL calculated according to the method of Friedewald et al., “Estimation of the Concentration of Low-Density Lipoprotein Cholesterol Without the Use of the Preparative Centrifuge”, Clin. Chem., Vol. 18, No. 6, pp. 499-502 (1972).

[1] = calculated according to Friedewald et al.
[2] = measured during 24 hours following breakfast standard meal

N#C[C@@H]1CCCN1C(=O)CNC12CC3CC(CC(O)(C3)C1)C2 [compound IC]
markedly lowered: levels of LDL [1] | levels of VLDL [1] | levels of total cholesterol [2] | levels of triglyceride [2]
